Key:
[1] = test system: GLS1; test: Targeted LC-MS/MS of intracellular metabolites in PAECs on soft or stiff matrix with GLS inhibitors; type: cell-based, human; conditions: BPTES 10 μM, DON 5 μM; for glutamate and aspartate / glutamine, pyruvate, and succinate / lactate: compared with stiff matrix control; for alterations of metabolite expression in stiff matrix (stiffness-induced glutamine consumption, glutamate production, aspartate production) / lactate/pyruvate ratio (glycolysis): C968 10 μM, stiff matrix
Protocol: HEK293T cells (American Type Culture Collection) were cultivated in DMEM containing 10% fetal bovine serum (FBS). Primary human pulmonary arterial endothelial cells (PAECs) were grown in EGM-2 cell culture media (Lonza), and experiments were performed at passages 3 to 6. Primary human pulmonary arterial smooth muscle cells (PASMCs) were cultured in SmGM-2 cell culture media (Lonza), and experiments were performed at passages 3 to 9. Inhibitors of GLS1 (2, 3): BPTES (Bis-2-(5-phenylacetamido-1,3,4-thiadiazol-2-yl)ethyl sulphide), DON (6-Diazo-5-oxo-L-norleucine), and C968 (Glutaminase Inhibitor, Compound 968, 5-(3-Bromo-4-(dimethylamino)phenyl)-2,2-dimethyl-2,3,5,6-tetrahydrobenzo[a]phenanthridin-4(1H)-one) were purchased from Sigma-Aldrich and used at concentration of 10 μM, 5 μM and 10 μM respectively. Glutamate was purchased from Sigma Aldrich and used at concentration of 2 mM. Aspartate was purchased from Sigma Aldrich and used at concentration of 10 mM.
Metabolite extraction was performed essentially as described with minor modifications (35). Briefly, metabolites were extracted from cultured cells and CD31+ cells on dry ice using 80% aqueous methanol pre-cooled at −80° C. Metabolites were extracted from plasma pre-cleared by centrifugation at 20,000×g for 10 min at 4° C. Supernatants were extracted with four volumes of 100% methanol pre-cooled at −80° C. for four hours at −80° C. An internal standard, [^13C4]-2-oxoglutarate (Cambridge Isotope Laboratories) was added during metabolite extraction. Insoluble material from both cell and plasma extractions was removed by centrifugation at 20,000×g for 15 min at 4° C. The supernatant was analysed by targeted LC-MS/MS as previously described (36). Metabolites were separated using a ZIC-HILIC stationary phase (150 mm×2.1 mm×[…]; Merck). The MS parameters were optimized using a glutamine standard solution. Monitored mass transitions were 87>87 (pyruvate), 115>73+99 (succinate), 132>88 (aspartate), 145>101 (20G), […] (glutamine), 146>128 (glutamate), and 149>105 ([^13C4]-20G). Mass transitions and retention time windows were confirmed by the analysis of neat and matrix-spiked standards. Peak areas were quantified by Xcalibur Software (Thermo) and manually reviewed.
To determine whether GLS1 is critical for stiffness-induced and YAP/TAZ-dependent glutaminolysis, PAECs were cultivated in soft or stiff matrix, and exposed to known inhibitors of two isoforms of GLS1 (KGA and GAC), BPTES (Bis-2-(5-phenylacetamido-1,3,4-thiadiazol-2-yl)ethyl sulphide), DON (6-Diazo-5-oxo-L-norleucine), or CB-968 (glutaminase inhibitor, compound 968, C-968) (FIG. 3A-C) or siRNA (si-GLS; FIG. 3D-G). As quantified by LC-MS/MS, inhibition of GLS in PAECs blunted the stiffness-induced processes of glutamine consumption, glutamate production, and aspartate production (FIGS. 3A and E). […] Similar alterations of metabolic activity were observed when inhibiting GLS1 in PASMCs (data not shown).

[2] = test system: PAECs; test: Proliferation of PAECs (cell count, BrdU pulse, PCNA staining); type: cell-based, human
Protocol: A-C) PAECs were plated on soft (1 kPa) or stiff (50 kPa) matrix and exposed to indicated treatments. Apoptosis (A-C) and proliferation (B-C) were quantified 48 h after plating. […] Apoptosis (as reflected by cleaved caspase-3 staining, CC-3+) was increased by serum starvation in both soft and stiff conditions but was not affected by GLS1 inhibition. In all panels, mean expression in control groups (soft matrix) was assigned a fold change of 1, to which relevant samples were compared. Data are expressed as mean±SD (*P<0.05; ** P<0.01, ***P<0.001).
(§1) After various indicated treatments, cultured cells were fixed with PBS/PFA 4% for 10 min and permeabilized with PBS/Triton 100×0.1% for 10 min. The cells were then incubated with anti-PCNA (#4912; 1/100; Invitrogen), anti-Ki67 (ab15580; 1/200; Abcam), and/or anti-cleaved caspase-3 (1/200; Cell Signaling) at room temperature for 2 hours. Secondary antibodies coupled with Alexa-594 and/or Alexa-488 (Thermo Scientific) were used at 1/500. Nuclei were counterstained with DAPI (Sigma).
After specified pre-treatment or transfection protocols as indicated, PAECs or PASMCs were plated in triplicate in 6 well plates at 30 000 cells per well. After overnight incubation for cells to adhere, 6 wells were counted to determine initial count at time of treatments (glutamate, aspartate, BPTES, DON or C968). After 2 days, 4 days or 6 days, the contents of the wells were trypsinized and counted, and proliferation rate was calculated.
Exponentially growing cells were plated in the indicated matrix for 48 hours.

[3] = test system: PAAFs; test: PAAF-dependent ECM remodelling on cytokine stimulation (RT-qPCR, picrosirius red); type: cell-based; conditions: stimulation by pro-inflammatory cytokines (EDN1, IL6 or TGF-b)
Source text: (§2) A-C) Pharmacological inhibition of GLS1 by either BPTES, C968 or CB839 blunted metabolic activation of PAAFs cultivated on stiff matrix as reflected by decreased glutaminolysis (A), glycolysis (B) and aspartate production (C). D-E) Pharmacological inhibition of GLS1 by either BPTES, C968 or CB839 decreased PAAFs dependent ECM remodelling upon stimulation by pro-inflammatory cytokines (EDN1, IL6 or TGF-b). […] G-H) Fibrilar collagen visualization (G) and quantification (H) by picrosirius red staining confirmed a decreased of ECM remodelling by activated PAAF (TGF-b) in presence of GLS1 inhibitors. I-M) PAAFs were cultivated upon indicated treatments. Cells were removed and pulmonary arterial endothelial cells (PAECs) were cultivated on the matrix synthesized by the PAAF. […] Data are expressed as mean±SEM (*P<0.05, § P<0.01, #P<0.001) of at least 3 independent experiments performed in triplicate. Paired samples were compared by 2-tailed Student's t test, while 1-way ANOVA and post-hoc Tukey's tests were used for group comparisons.
Messenger RNAs were reverse transcribed using the Multiscript RT kit (Life Technologies) to generate cDNA. cDNA was amplified via fluorescently labeled Taqman primer sets using an Applied Biosystems 7900HT Fast Real Time PCR device. To specifically determine the relative expression of the two GLS1 isoforms KGA and GAC, TaqMan gene expression assays Hs01014019_m1 and Hs01022166_m1 were used respectively. Fold-change of RNA species was calculated using the formula (2^−ΔΔCt), normalized to RPLP0 expression.
Picrosirius Red stain was achieved through the use of 5 μm paraffin sections stained with 0.1% Picrosirius Red (Direct Red80, Sigma-Aldrich) and counterstained with Weigert's hematoxylin to reveal fibrillar collagen. The sections were then serially imaged using with an analyzer and polarizer oriented parallel and orthogonal to each other. Microscope conditions (lamp brightness, condenser opening, objective, zoom, exposure time, and gain parameters) were maintained throughout the imaging of all samples. A minimal threshold was set on appropriate control sections for each experiment in which only the light passing through the orthogonally-oriented polarizers representing fibrous structures (i.e., excluding residual light from the black background) was included. The threshold was maintained for all images across all conditions within each experiment. The area of the transferred regions that was covered by the thresholded light was calculated and at least 10 sections/vessel per condition were averaged together (NIH ImageJ software). Targeted LC-MS/MS

[4] = test system: PAECs; test: Apoptosis of PAECs on soft or stiff matrix (caspase 3/7 activity, cleaved caspase-3 staining); type: cell-based, human
Protocol: A-C) PAECs were plated on soft (1 kPa) or stiff (50 kPa) matrix and exposed to indicated treatments. Apoptosis (A-C) and proliferation (B-C) were quantified 48 h after plating. […] In all panels, mean expression in control groups (soft matrix) was assigned a fold change of 1, to which relevant samples were compared. Data are expressed as mean±SD (*P<0.05; ** P<0.01, ***P<0.001).
as §1
Caspase 3/7 activity was quantified using the Caspase-Glo 3/7 Assay (Promega), according to manufacturer's instructions. Briefly, cells were plated on hydrogel of different stiffness and treated as described. Twenty four hours after plating, cells were cultured in the presence or absence of serum for twenty-four hours. Cells were then lysed and 10 μg of total protein were incubated for 1 h with the caspase substrates, and luminescence was quantified by plate reader (SynergyHTX multi-mode reader, Biotek).

[5] = test system: PAAFs; test: Metabolic activation of PAAFs cultivated on stiff matrix; type: cell-based
Source text: as §2

Row | Compound | glutamate and aspartate [1] | glutamine, pyruvate, and succinate [1] | lactate [1] | alterations of metabolite expression in stiff matrix (stiffness-induced glutamine consumption, glutamate production, aspartate production) [1] | lactate/pyruvate ratio (glycolysis) [1] | proliferation in stiff matrix (PCNA+) ([2]; PAECs, stiff matrix, 48 h after plating) | PAAFs dependent ECM remodelling [3] | apoptosis (cleaved caspase-3 staining, CC-3+) ([4]; serum starvation, soft and stiff conditions) | caspase 3/7 activity ([4]; soft (1 kPa) or stiff (50 kPa) matrix, 24 h after serum depletion, vs vehicle control) | aspartate production [5] | glutaminolysis [5] | glycolysis [5] | metabolic activation of PAAFs [5] | cellular proliferation in cells with diminished GLS1 or YAP/TAZ ([2]; PAECs or PASMCs with siRNA knockdown, glutamate 2 mM, aspartate 10 mM supplementation, data not shown)
1 | O=C(Cc1ccccc1)Nc1nnc(CCSCCc2nnc(NC(=O)Cc3ccccc3)s2)s1 [BPTES, Bis-2-(5-phenylacetamido-1,3,4-thiadiazol-2-yl)ethyl sulphide] | decreased | increased | decreased | blunted | decreased | decreased | decreased | not affected | No significant changes | decreased | decreased | decreased | blunted | –
2 | [N-]=[N+]=CC(=O)CC[C@H](N)C(=O)O [DON, 6-Diazo-5-oxo-L-norleucine] | decreased | increased | decreased | blunted | decreased | – | – | – | – | – | – | – | – | –
3 | N[C@@H](CCC(=O)O)C(=O)O [glutamate, Glutamate] | – | – | – | – | – | – | – | – | – | – | – | – | – | at least partially restored

Source: patent US11672795B2, “Compositions and methods for treating pulmonary vascular disease” (UNIVERSITY OF PITTSBURGH-OF THE COMMONWEALTH SYSTEM OF …, priority 2016, dated 2023)
